Laboratory results reported in the METLIN SMRT retention time set (Domingo-Almenara et al. 2019).

Test: gradient 5% acetonitrile 3 min, to 50% in 2 min, to 85% in 15 min, held 3 min, 100 µL/min
Conditions: column: Zorbax Extend-C18 2.1 x 50 mm; eluents: water / acetonitrile, 0.1% formic acid
Method in brief: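 Pure standards were analyzed in mixtures of ~100 molecules using HPLC coupled to a quadrupole time-of-flight mass spectrometer, in both positive and negative ionization mode. Separation used a Zorbax Extend-C18 column (2.1 × 50 mm, 1.8 μm) at 100 μL/min, with water and acetonitrile each containing 0.1% formic acid. Dead and dwell volumes were 40 μL and 900 μL, and data were collected over 3 months. Retention time was read from computationally picked adduct peaks, each inspected manually.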

Row | SMILES | RP-LC retention time
1 | O=C(NCCc1cccs1)C1CCCN(c2nc3ccsc3c(=O)n2Cc2ccc(F)cc2)C1 (stereo not drawn) | 936 s
2 | CC(O)c1nc2c(c(=O)n(C)c(=O)n2C)n1C (stereo not drawn) | 622 s
3 | Cn1nc(-c2nnc(-c3ccccc3)o2)c2c1CCN(S(=O)(=O)c1cccc3nsnc13)C2 | 905 s
4 | CCC(C(=O)NCCc1c(C)nn(CC)c1C)n1c2ccccc2c2cnn(C)c(=O)c21 (stereo not drawn) | 698 s
5 | COc1cc2c(cc1O)[C@@H](Cc1ccc(O)c(Oc3ccc(C[C@@H]4c5cc(OC)c(OC)cc5CCN4C)cc3)c1)N(C)CC2 | 639 s
6 | CCOC(=O)C1=CN(C)S(=O)(=O)N=C1C | 695 s
7 | O=C(c1ccco1)N1CCc2nc(OCC3CC3)ccc2C1 | 821 s
8 | Cc1ccc(-c2nnc(-c3nn(C)c4c3CN(S(=O)(=O)c3ccccc3C)CC4)o2)cc1 | 1020 s
9 | CCNC(=O)C1CCCN(c2nc3ncn(CC(=O)Nc4ccc(F)cc4)c(=O)c3s2)C1 (stereo not drawn) | 657 s
10 | COCc1nncn1C1CCN(S(=O)(=O)c2cc(Cl)ccc2OC)CC1 | 736 s
11 | COc1ccc2[nH]cc(CCNC(=O)c3cc(C)nc4c3c(=O)n(C)c(=O)n4C)c2c1 | 699 s
12 | CCn1c(SCC(=O)N(C)C)nnc1-c1ccc2c(c1)OCCCO2 | 671 s
13 | O=C(Cc1nnc(-c2ccc3ncccc3c2)o1)N1CCN(C2CCCCC2)CC1 | 574 s
14 | O=C(c1ccccc1OCc1nc(-c2ccccc2)no1)N1CCCCC1 | 950 s
15 | CCCNC(=O)Cn1cc(C(=O)Nc2ccc(Cl)cc2)c(=O)c2ccc(C)nc21 | 962 s
16 | O=C(c1ccc(-c2c(-c3ccc(F)cc3)ncn2C2CCCC2)o1)N1CCN(c2ncccn2)CC1 | 727 s
17 | Cc1ccc2nc(NC3=NCN(CCO)CN3)nc(C)c2c1 | 593 s
18 | Cc1oc(-c2ccccc2)nc1Cc1noc(-c2cccc(F)c2)n1 | 1160 s
19 | O=C(c1ccc2[nH]ccc2c1)N1CCN(c2cc(-c3cccs3)[nH]n2)CC1 | 708 s
20 | CN(CC(O)COc1ccc2c(c1)OCO2)C1CCCCC1 (stereo not drawn) | 567 s

Row | SMILES | RP-LC retention time
21 | CC(=O)Oc1ccc(C2=NN(C(C)=O)C(c3ccc(F)cc3)O2)c(OC(C)=O)c1 (stereo not drawn) | 936 s
22 | O=C(NCc1ccc2c(c1)N(C(=O)c1ccccc1)CC2)NC1CCCC1 | 818 s
23 | Cc1c(-c2noc(C(=O)N3CCc4ccccc4C3)n2)oc2c(C)cccc12 | 1280 s
24 | Cc1ccc2c(Nc3ccc(S(N)(=O)=O)cc3)c(C(=O)N3CCCCCC3)cnc2n1 | 595 s
25 | Cc1cc(-c2c(C)sc(C)c2S(=O)(=O)Nc2cccc(Br)c2)n[nH]1 | 1100 s
26 | CC(C)CCNC(=O)c1c(OCC2CC2)cc(=O)n2c1CCCCC2 | 774 s
27 | O=C(Cn1c(=O)c2cccn2c2ccccc21)Nc1cccc(C(F)(F)F)c1 | 880 s
28 | CC1CCCN(C(=O)Cc2nnc3cc(-c4nc(C5CC5)no4)ccn23)C1 (stereo not drawn) | 759 s
29 | COc1ccc(C2c3[nH]c4ccccc4c3CCN2C(=O)c2cccnc2)cc1 (stereo not drawn) | 887 s
30 | Cc1noc(C2CN(S(=O)(=O)c3ccccc3)CC23CCOCC3)n1 (stereo not drawn) | 767 s
31 | CCOC(=O)c1c(C)[nH]c(C(=O)N2CCCC(C(=O)NCCN3CCCC3)C2)c1C (stereo not drawn) | 603 s
32 | Cc1csc(NC(=O)C2CCN(S(=O)(=O)c3cc(-c4noc(C)n4)ccc3Cl)CC2)n1 | 899 s
33 | c1cncc(-c2nc(-c3ccnc(N4CCCC4)c3)no2)c1 | 590 s
34 | Cc1ccc(-c2nnc(-c3nc(N4CCCCC4C)c4ccccc4n3)o2)cc1 (stereo not drawn) | 1260 s
35 | O=C(NCc1csc(-c2ccccc2)n1)C1CCCN(c2cc(-n3cccn3)ncn2)C1 (stereo not drawn) | 813 s
36 | Cc1cc(Cl)ccc1OCc1nc(-c2ccc(NS(C)(=O)=O)cc2)no1 | 1060 s
37 | COc1ccc(NC(=O)Cn2c(=O)c(CCC(=O)NC3CCCC3)nc3ccccc32)c(OC)c1 | 792 s
38 | CCn1cc(-c2ccc(C)cc2)cc1C(=O)O | 898 s
39 | Cc1nc(N2CCOCC2)c2c(C(=O)NCCCc3ccccc3)c(C)oc2n1 | 805 s
40 | CN(CC1(C)CCOCC1)C(=O)COc1ccc(F)cc1 | 770 s

Row | SMILES | RP-LC retention time
41 | COc1cc(N2CCC(N3CCN(C)CC3)CC2)ccc1Nc1ncc(Cl)c(Nc2ccccc2S(=O)(=O)C(C)C)n1 | 694 s
42 | O=C(Cc1csc(NC(=O)c2ccco2)n1)Nc1ccc2c(c1)OCCO2 | 670 s
43 | O=C(NCc1ccc(F)cc1Cl)C1CCCN(c2cnc3nccnc3c2)C1 (stereo not drawn) | 748 s
44 | CSc1ccc(C2c3[nH]c4ccccc4c3CCN2C(=O)c2ccncc2)cc1 (stereo not drawn) | 958 s
45 | CCN(CC)C(=O)c1cc(C)nc2c1c(=O)n(Cc1ccccc1C)c(=O)n2C | 938 s
46 | O=C(Cc1ccccc1)N1CCCCC1c1nncn1-c1ccccc1 (stereo not drawn) | 741 s
47 | Cc1cccc(NC(=O)Cn2nc3c(Oc4cccc(F)c4)nccn3c2=O)c1 | 864 s
48 | CN1Cc2ccccc2-n2ccnc2C12CCN(C(=O)c1cc(F)cc(F)c1)CC2 | 618 s
49 | CC1CCN(CCCNc2ccc(-c3nc(-c4ccc(F)cc4)no3)cn2)CC1 | 740 s
50 | CC(C)n1cnc2c(C(=O)N[C@H]3CN4CCC3CC4)cc(Cl)cc21 | 692 s
51 | Cc1ccc(Nc2c(-c3ccccc3O)nc3ccc(Cl)cn23)cc1 | 1080 s
52 | Fc1ccc(Cc2noc(-c3nc(-c4ccccc4)no3)n2)cc1 | 1160 s
53 | CC(C)CCNC(=O)C1(C)Cn2nc(C(=O)NCC(C)c3ccccc3)cc2C(=O)N1C (stereo not drawn) | 833 s
54 | O=C(NCCCc1ccccc1)C1CCN(C(=O)N2CCOc3ccc(Cl)cc32)CC1 | 948 s
55 | COC(=O)c1ccsc1NC(=O)CCS(=O)(=O)c1ccccc1 | 788 s
56 | Cc1ccc2c(Nc3cccc(C(C)C)c3)c(C(=O)N3CCSCC3)cnc2n1 | 688 s
57 | C[C@@H]1O[C@@H](OC2O[C@@H](COc3cc(O)c4c(=O)cc(-c5ccc(O)cc5)oc4c3)[C@@H](O)[C@@H](O)[C@@H]2O)[C@H](O)[C@H](O)[C@H]1O (stereo partly drawn) | 671 s
58 | Cn1c(=O)n(C)c2cc(CNCCc3ccc(Cl)cc3Cl)ccc21 | 653 s
59 | O=C(NCc1ccc(N2CCOCC2)nc1)c1ccccc1Br | 581 s

Now from value to molecule:

Row | RP-LC retention time | SMILES
60 | 934 s | COc1cccc(-c2noc(Cc3nnc(-c4cccc(F)c4)o3)n2)c1OC
61 | 985 s | Cc1cccc(C(=O)Nc2nc(-c3ccc4c(c3)N(C)C(=O)CO4)cs2)c1
62 | 941 s | Cc1cc(=O)n(CC(=O)Nc2ccc3c(c2)OCO3)c(-c2ccccc2)n1
63 | 571 s | O=C(CCCN1C(=O)c2cccc3cccc(c23)C1=O)Nc1cccnc1
64 | 1020 s | O=C(CN1C(=O)C(C(=O)N2CCCC2)Sc2ccccc21)Nc1cccc(F)c1 (stereo not drawn)
65 | 1290 s | CC(C)[C@@H]1CC[C@@H](C)C[C@@H]1P(=O)(c1ccccc1)c1ccccc1
66 | 820 s | Cc1ccc(CNC(=O)c2nnc(-c3ccc(S(=O)(=O)N4CCOCC4)cc3)o2)o1
67 | 740 s | CCC(=O)NC(C)c1nc(-c2ccccc2Cl)no1 (stereo not drawn)
68 | 613 s | CCc1cc(=O)n(CC(=O)Nc2cccc(F)c2)c(N)n1
69 | 744 s | CC1(c2ccccc2)CC(C)(C)N(C(=O)CN2CCOCC2)c2ccccc21 (stereo not drawn)
70 | 894 s | Cc1ccc(C2=NC3(CCN(C(=O)CSc4ccccc4)CC3)ON2)cc1
71 | 798 s | CCOc1ccc(NC(=O)C2CCN(S(=O)(=O)c3ccc4c(c3)sc(=O)n4C)CC2)cc1
72 | 822 s | CC1=C(c2ccc(C)cc2)S(=O)(=O)N=C1N1CCCN(C(=O)NCC(C)C)CC1
73 | 1100 s | Cc1ccc(N2C(=O)N(Cc3ccccc3)S(=O)(=O)c3cccnc32)cc1F
74 | 844 s | O=C(Cc1ccc(Cl)cc1)NCCOc1ccccc1
75 | 863 s | CCN1c2ccc(F)cc2C(=O)NC12CCN(C(=O)Cc1ccccc1Cl)CC2
76 | 1050 s | Cc1ccc(NC(=O)CSc2cc(N3CCCCC3)ncn2)cc1Cl
77 | 730 s | O=C(CCc1c(-c2ccc(F)cc2)nc2ccccn12)Nc1cccc(Br)c1
78 | 1360 s | CCn1cc(-c2nc(C(=O)Nc3cc(Cl)ccc3OC)cs2)c2cccnc21
79 | 710 s | COc1cccc(-c2nc3cnccn3c2NCCC(=O)NC2CCCCC2)c1
80 | 1050 s | Cn1c(C(=O)NCCc2ccccc2)cc2sc(Cl)cc21
81 | 628 s | Cc1cc(C(=O)NC2CC2)no1
82 | 785 s | CC(=O)Nc1cc2c(cc1Sc1ccc(C)cc1)n(C)c(=O)n2C
83 | 611 s | Cc1ccc(CNC(=O)C2CCCN(C(=O)c3cc(-c4cccnc4)n[nH]3)C2)o1 (stereo not drawn)
84 | 942 s | Cc1cc(C(=O)NC(C)CCc2ccccc2)n(-c2ccccc2)n1 (stereo not drawn)
85 | 1080 s | Cc1csc(NC(=O)c2cn(Cc3cccc(F)c3)nc2OCc2cccc(F)c2)n1
86 | 844 s | Cc1ccc(C2NC(=O)N(CC(=O)Nc3cc(F)cc(F)c3)C3=C2C(=O)OC3)cc1 (stereo not drawn)
87 | 840 s | CC(=O)N1CCc2sc(C(=O)N3CCN(c4cccc(Cl)c4)CC3)cc2C1
88 | 694 s | Cc1cc(C(=O)Nc2nnc(CCSc3ccccc3)o2)on1
